According to patent US20240350643A1, “PROTEIN DEGRADATION AGENT” (SUZHOU KINTOR PHARMACEUTICALS, INC., priority 2021, published 2024):

Experiments:
HL60 cells = experiment: Anti-proliferation ability of compounds on HL60 cells (CTG); format: cell-based, human; settings: Homo sapiens, HL-60, 72 h, 3 days, CellTiter-Glo, read-out: HL60 cells Proliferation inhibitory activity
Procedure: II. Activity test 2: Anti-proliferation ability of compounds on HL60 cells: 1 Cell plating
HL60 cells in the logarithmic growth phase were counted and plated evenly in a 96-well transparent bottom white plate at 20000 cells per well and 100 μL per well.
A certain amount of the compounds was weighed and diluted with DMSO to a 10 mM stock solution. The culture mediums corresponding to the cells were taken, and the drugs were diluted to the concentration required by the test, shaken gently and mixed evenly. 50 μl of the gradient dilution of the diluted compound was added to each well of the plated cells, and 50 μL of 0.1% DMSO was added to the control group. The plate was shaken gently, mixed evenly and incubated in a cell culture incubator for 3 days.
• 3.1 The CellTiter-GLo™ (CTG) reagent was taken in advance from the −20° C. refrigerator and equilibrated to room temperature in the dark (white bottle+brown bottle, 1:1 mixing evenly into the brown bottle, for later use). • 3.2 The 96-well plate was taken out and inspected under a microscope for growth situation. • 3.3 The bottom of the 96-well plate was tagged with white paper, and then the plate was wrapped with tin foil paper, shaken at 37° C. at 300 r for 10 min and mixed evenly. • 3.4 50 ul of CTG detection reagent was added to each well, Luminescence signal was detected using a microplate reader, and the inhibition rate was calculated. IC50 values of the compounds were calculated by XLfit software to evaluate the proliferation inhibitory activity on HL60 cells.

c-Myc protein = target: T1, c-Myc protein (Homo sapiens, UniProt P01106); experiment: Ability of compounds to degrade c-Myc protein in HL60 cells (ELISA); format: cell-based; settings: HL-60, 1 μM compound, 24 h, read-out: HL60 cells Protein degradation rate (1 μM)
T1 construct: endogenous in cells; host or cells: HL60 cells
T1 sequence (P01106 whole entry): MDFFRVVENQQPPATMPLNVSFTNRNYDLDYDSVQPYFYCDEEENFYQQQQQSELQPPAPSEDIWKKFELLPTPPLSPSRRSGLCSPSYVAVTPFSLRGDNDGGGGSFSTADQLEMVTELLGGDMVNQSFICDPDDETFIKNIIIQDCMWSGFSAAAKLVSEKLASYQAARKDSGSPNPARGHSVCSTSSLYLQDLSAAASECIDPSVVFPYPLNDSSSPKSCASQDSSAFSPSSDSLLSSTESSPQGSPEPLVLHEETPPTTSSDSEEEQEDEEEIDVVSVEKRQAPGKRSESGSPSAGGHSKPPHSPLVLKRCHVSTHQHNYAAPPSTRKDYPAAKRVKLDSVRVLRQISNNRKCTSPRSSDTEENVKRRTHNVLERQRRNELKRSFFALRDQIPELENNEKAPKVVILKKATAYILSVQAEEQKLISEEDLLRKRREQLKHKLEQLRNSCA
Procedure: I Activity test 1: Ability of compounds to degrade c-Myc protein in HL60 cells:
HL60 cells in the exponential growth phase were centrifuged, diluted with fresh culture mediums to 6×10^4 cells/100 μL and plated into a 96-well plate at 100 μL per well.
Preparation of test compounds: the compounds were weighed and diluted with DMSO to a 10 mM stock solution for later use. According to test requirements, drugs were diluted with cell culture mediums, with ten-fold dilutions starting from 10 μM, to achieve 3 concentration gradients: 10 μM, 1 μM and 100 NM; and finally, 1 μL of the drugs (DMSO content: 0.01%) were added to each well. For the blank control group, DMSO was also diluted with cell culture mediums, and finally, 1 μL of the control reagent (DMSO content: 0.01%) was added to each well.
3. Effect of drugs on c-Myc in cells as determined by ELISA
After 24 h of drug action, the culture mediums were removed, and the cells were washed once with ice-cold 1× PBS. PBS was removed, and 100 μL of ice-cold 1× Cell Lysis Buffer plus 1 mM phenylmethylsulfonyl fluoride (PMSF) was added to each well. The plate was incubated on ice for 20 min and centrifuged at 4000 RPM at 4° C. for 10 min for later use.
4. Reagent and antibody preparation in ELISA kit 1× wash buffer • 1). 16 mL of ELISA wash buffer concentrate (25×) was diluted with 384 mL of deionized water or distilled water, labeled as 1× Wash Buffer. • 2). The concentrate and 1× Wash Buffer were stored in the refrigerator. The diluted buffer was used within 14 days.
The cell extraction buffer contains 10 mM Tris (pH 7.4), 100 mM NaCl, 1 mM EDTA, 1 mM EGTA, 1 mM NaF, 20 mM Na4P2O7 2 mM Na3VO4. 1% Triton™ ×-100, 10% glycerol, 0.1% SDS and 0.5% deoxycholate. Immediately before use, PMSF (0.3 M stock solution in DMSO) was added to the buffer to a final concentration of 1 mM.
Standard curve configuration: The standard liquid was diluted using glass or plastic tubes. • 1). Huc-Myc (total) standard liquid (Invitrogen, KH02041) was reconstituted with a standard dilution to 1000 pg/mL. Refer to the standard vial label for instructions. The contents were gently swirled or mixed and then allowed to stand for 10 minutes to ensure complete reconstitution, labeled as 1,000 pg/mL human c-Myc. The standard liquid was used within 1 hour after reconstitution. • 2). 250 μL of standard dilution buffers were added to 7 test tubes respectively labeled 500, 250, 125, 62.5, 31.25, 15,63 and 0 pg/mL. • 3). 250 μL of the 1000 pg/ml standard stock solution was added to the first EP tube to a concentration of 500 pg/mL, vortexed and mixed evenly. 250 μL of the resulting mixture was further pipetted and added to the second EP tube to a concentration of 250 pg/mL. Serial dilutions were performed until the sixth EP tube with a concentration of 15.63 pg/mL. Dilution was not performed on the last EP tube. • 4). The remaining reconstituted standard liquid should be discarded, or aliquoted and frozen at −80° C. for further use. Standards can be frozen and thawed only once without losing immunoreactivity.
1× anti-rabbit IgG HRP solution: 1× anti-rabbit IgG HRP solution was prepared within 15 minutes of use. The anti-rabbit IgG HRP (100×) contained 50% viscous glycerol. To ensure accurate dilutions, the following operations were carried out: 1 For each 8-well test strip used in the test, 10 μl, of the anti-rabbit IgG -IRP (100×) solution was pipetted, wherein the pipette tip was wiped with clean absorbent paper to remove excess solutions, and then the solution was dispensed into a test tube containing 1 mL of HRP diluent and mixed thoroughly. 2. The unused anti-rabbit IgG HRP (100×) was placed in the refrigerator for storage.
50 μL of the standard liquid was added to the appropriate wells and not added to the blank control well. Except for the blank control well, 50 μL of Hu c-Myc (total) detection antibody solution was added to each well and mixed by tapping the side face of the plate. […]

Row | IC50 (HL60 cells) [nM] | inhibition at 1 µM (c-Myc protein) [%] | SMILES
1 | 16.3 ± 3.3 | 60 to 90 | O=C(Cc1cccc2ccccc12)NCCCCCCCCNc1ccc2c(c1)C(=O)N(C1CCC(=O)NC1=O)C2=O (stereo not shown) [A15]
2 | 21.2 ± 6.1 | 60 to 90 | O=C(Cn1c2ccccc2c2cccnc21)NCCCCCCCCNc1ccc2c(c1)C(=O)N(C1CCC(=O)NC1=O)C2=O (stereo not shown) [A16]
3 | 3590 ± 1180 | 30 to 60 | O=C(Cc1cccc2ccccc12)NCCCCCCCCOc1ccc2c(c1)C(=O)N(C1CCC(=O)NC1=O)C2=O (stereo not shown) [A17]
4 | 1220 ± 217 | 30 to 60 | O=C(Cn1c2ccccc2c2cccnc21)NCCCCCCCCOc1ccc2c(c1)C(=O)N(C1CCC(=O)NC1=O)C2=O (stereo not shown) [A18]
5 | 585 ± 79.8 | 60 to 90 | O=C(Cc1cccc2ccccc12)NCCCCCCCCCc1ccc2c(c1)C(=O)N(C1CCC(=O)NC1=O)C2=O (stereo not shown) [A19]
6 | 490 ± 64.9 | 60 to 90 | O=C(Cn1c2ccccc2c2cccnc21)NCCCCCCCCCc1ccc2c(c1)C(=O)N(C1CCC(=O)NC1=O)C2=O (stereo not shown) [A20]
7 | 178 ± 68.4 | 10 to 30 | O=C1CCC(N2C(=O)c3ccc(CCCCCCC(=O)N(Cc4ccccc4)Cc4ccccc4)cc3C2=O)C(=O)N1 (stereo not shown) [A21]
8 | 29.2 ± 14.4 | 30 to 60 | O=C(Cc1cccc2ccccc12)NC[C@H]1CC[C@H](CNC(=O)c2ccc3c(c2)C(=O)N(C2CCC(=O)NC2=O)C3=O)CC1 (stereo partly shown) [A22]
9 | 55.4 ± 6.7 | 30 to 60 | O=C(Cn1c2ccccc2c2ccccc21)NC[C@H]1CC[C@H](CNC(=O)c2ccc3c(c2)C(=O)N(C2CCC(=O)NC2=O)C3=O)CC1 (stereo partly shown) [A23]
10 | 103 ± 53.2 | 30 to 60 | O=C(Cn1c2ccccc2c2cccnc21)NC[C@H]1CC[C@H](CNC(=O)c2ccc3c(c2)C(=O)N(C2CCC(=O)NC2=O)C3=O)CC1 (stereo partly shown) [A24]
11 | 270 ± 126 | 30 to 60 | O=C(Cn1c2ccccc2c2ccncc21)NC[C@H]1CC[C@H](CNC(=O)c2ccc3c(c2)C(=O)N(C2CCC(=O)NC2=O)C3=O)CC1 (stereo partly shown) [A25]
12 | 2820 ± 1060 | 30 to 60 | CC(C)(C)OC(=O)NC[C@H]1CC[C@H](CNC(=O)c2ccc3c(c2)C(=O)N(C2CCC(=O)NC2=O)C3=O)CC1 (stereo partly shown) [A26]
13 | 6800 ± 1540 | 10 to 30 | O=C(Cc1cccc2ccccc12)NC[C@H]1CC[C@H](CNc2ccc3c(c2)C(=O)N(C2CCC(=O)NC2=O)C3=O)CC1 (stereo partly shown) [A27]
14 | 5060 ± 137 | 60 to 90 | CC(C)(C)OC(=O)NC[C@H]1CC[C@H](CNc2ccc3c(c2)C(=O)N(C2CCC(=O)NC2=O)C3=O)CC1 (stereo partly shown) [A28]
15 | 30.1 ± 21.1 | 60 to 90 | O=C(Cc1cccc2ccccc12)NCc1ccc(CNC(=O)c2ccc3c(c2)C(=O)N(C2CCC(=O)NC2=O)C3=O)cc1 (stereo not shown) [A29]
16 | 18 ± 11.5 | 60 to 90 | O=C(Cn1c2ccccc2c2cccnc21)NCc1ccc(CNC(=O)c2ccc3c(c2)C(=O)N(C2CCC(=O)NC2=O)C3=O)cc1 (stereo not shown) [A30]
17 | 1360 | 60 to 90 | CC(C)(C(=O)NCc1ccc(CNC(=O)c2ccc3c(c2)C(=O)N(C2CCC(=O)NC2=O)C3=O)cc1)c1cccc2ccccc12 (stereo not shown) [A31]
18 | 433 ± 166 | 60 to 90 | CC(C)(C(=O)NCc1ccc(CNC(=O)c2ccc3c(c2)C(=O)N(C2CCC(=O)NC2=O)C3=O)cc1)n1c2ccccc2c2cccnc21 (stereo not shown) [A32]

Row | IC50 (HL60 cells) [nM] | inhibition at 1 µM (c-Myc protein) [%] | SMILES
19 | 9.1 ± 0.3 | 60 to 90 | O=C(Cc1nccc2ccccc12)NCc1ccc(CNC(=O)c2ccc3c(c2)C(=O)N(C2CCC(=O)NC2=O)C3=O)cc1 (stereo not shown) [A33]
20 | 18 ± 6 | 60 to 90 | O=C(Cc1cccc2cccnc12)NCc1ccc(CNC(=O)c2ccc3c(c2)C(=O)N(C2CCC(=O)NC2=O)C3=O)cc1 (stereo not shown) [A34]
21 | 10.9 ± 4.8 | 60 to 90 | O=C(Cc1c(F)ccc2ccccc12)NCc1ccc(CNC(=O)c2ccc3c(c2)C(=O)N(C2CCC(=O)NC2=O)C3=O)cc1 (stereo not shown) [A35]
22 | 13.4 ± 3.3 | 30 to 60 | O=C(Cc1cccc2ccc(F)cc12)NCc1ccc(CNC(=O)c2ccc3c(c2)C(=O)N(C2CCC(=O)NC2=O)C3=O)cc1 (stereo not shown) [A36]
23 | 314 | 30 to 60 | O=C(Cc1cccc2ccccc12)NCc1cccc(CNC(=O)c2ccc3c(c2)C(=O)N(C2CCC(=O)NC2=O)C3=O)c1 (stereo not shown) [A37]
24 | 66.2 ± 14.6 | 30 to 60 | O=C(Cn1c2ccccc2c2cccnc21)NCc1cccc(CNC(=O)c2ccc3c(c2)C(=O)N(C2CCC(=O)NC2=O)C3=O)c1 (stereo not shown) [A38]
25 | 979 ± 80.2 | 60 to 90 | O=C(Cc1cccc2ccccc12)NCCc1ccc(NC(=O)c2ccc3c(c2)C(=O)N(C2CCC(=O)NC2=O)C3=O)cc1 (stereo not shown) [A39]
26 | 306 ± 73.8 | 60 to 90 | O=C(Cc1cccc2ccccc12)NCCc1ccc(CNC(=O)c2ccc3c(c2)C(=O)N(C2CCC(=O)NC2=O)C3=O)cc1 (stereo not shown) [A40]
27 | 155 ± 8.9 | 60 to 90 | O=C(Cn1c2ccccc2c2cccnc21)NCCc1ccc(CNC(=O)c2ccc3c(c2)C(=O)N(C2CCC(=O)NC2=O)C3=O)cc1 (stereo not shown) [A41]
28 | 3640 ± 895 | 60 to 90 | O=C(Cc1cccc2ccccc12)NCc1ccc(CCNC(=O)c2ccc3c(c2)C(=O)N(C2CCC(=O)NC2=O)C3=O)cc1 (stereo not shown) [A42]
29 | 282 ± 27.5 | 60 to 90 | O=C(Cn1c2ccccc2c2cccnc21)NCc1ccc(CCNC(=O)c2ccc3c(c2)C(=O)N(C2CCC(=O)NC2=O)C3=O)cc1 (stereo not shown) [A43]
30 | 5400 ± 683 | 30 to 60 | O=C1CCC(N2C(=O)c3ccc(C(=O)NCc4ccc(NC(=O)Cc5cccc6ccccc56)cc4)cc3C2=O)C(=O)N1 (stereo not shown) [A44]
31 | 61.6 ± 21 | 60 to 90 | O=C1CCC(N2C(=O)c3ccc(C(=O)NCc4ccc(CNC(=O)Nc5cccc6ccccc56)cc4)cc3C2=O)C(=O)N1 (stereo not shown) [A45]
32 | 50.2 ± 14 | 60 to 90 | O=C1CCC(N2C(=O)c3ccc(C(=O)NC[C@H]4CC[C@H](CNC(=O)Nc5cccc6ccccc56)CC4)cc3C2=O)C(=O)N1 (stereo partly shown) [A46]
33 | 1040 ± 171 | 60 to 90 | O=C1CCC(N2C(=O)c3ccc(C(=O)NC[C@H]4CC[C@H](CNC(=O)Nc5cccc6cccnc56)CC4)cc3C2=O)C(=O)N1 (stereo partly shown) [A47]
34 | 3579 ± 29 | 60 to 90 | O=C1CCC(N2C(=O)c3ccc(C(=O)NC[C@H]4CC[C@H](CNC(=O)Nc5cccc6ccncc56)CC4)cc3C2=O)C(=O)N1 (stereo partly shown) [A48]
35 | 6820 ± 1630 | 60 to 90 | O=C1CCC(N2C(=O)c3ccc(C(=O)NC[C@H]4CC[C@H](CNC(=O)Nc5cccc6cnccc56)CC4)cc3C2=O)C(=O)N1 (stereo partly shown) [A49]
